Common to all, as to conditions: assay mode: Radical Cure, 8-day (treatment from day 5 post-infection)
Test [1] has as its system Plasmodium vivax liver stage (primary human hepatocyte culture). Nature of the test: maximum inhibition of schizont net growth area; higher = more active. How it is done: (§1)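 Dose-response of P. vivax liver stages in primary human hepatocytes, with 8 points (10 uM-[…], v1) or 12 points in duplicate (50 uM-280 pM, v2). Read-out is high-content imaging of schizont net growth area, hypnozoite quantity and hepatic nuclei. EC50 and CC20 (20% nuclei loss) were fitted in CDD Vault from the highest-quality independent experiment; toxic-dose bell-shaped points were masked. '>' marks the highest concentration with less than 50% activity, and ND means a non-sigmoidal curve.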

Test [2] shares this test system. Here is the method: as §1
For test [3], the system named is primary human hepatocytes. The experiment in a line: CC20 hepatic nuclei (20% reduction); higher = less toxic. Here is the method:
as §1

Where [4] appears, read: P. vivax isolate: Pv395, hepatocyte lot: UBV.
[5] abbreviates: P. vivax isolate: Pv657, hepatocyte lot: BGW.
Where [6] appears, read: P. vivax isolate: Pv728, hepatocyte lot: BGW.
Setting [7] is: P. vivax isolate: Pv557, hepatocyte lot: UBV.
Where [8] appears, read: P. vivax isolate: Pv668, hepatocyte lot: BGW.
The mark [9] stands for this setting: P. vivax isolate: Pv590, hepatocyte lot: UBV.
[10] abbreviates: P. vivax isolate: Pv458, hepatocyte lot: UBV.

Take `c1ccc(-c2csc(Nc3nc4cc5c(cc4s3)OCO5)n2)nc1`: the maximum inhibition in test [1] (setting [4]) amounted to 72.6%. In addition, in test [2] (setting [4]), the EC50 hypnozoite quantity is above 10 µM and the “EC50 schizont net growth area” value was above 3.33 µM. Besides, the CC20 hepatic nuclei in test [3] (setting [4]) was above 10 µM.

Regarding `CC(C)(C)n1nc(-c2ccccc2)c2c(N)ncnc21`, the maximum inhibition in test [1] (setting [5]) came to 76.7%. In test [2] (setting [5]), the EC50 hypnozoite quantity was above 50 µM and the “EC50 schizont net growth area” value is above 16.7 µM. This compound also displayed a CC20 hepatic nuclei in test [3] (setting [5]) above 50 µM.

As to `CC1(CN2CCC(n3c(O)nc4ccccc43)CC2)OCc2ccccc2-n2cccc21` (centres undefined), in test [1] (setting [6]), the maximum inhibition was determined as 99.2%. Also, in test [2] (setting [6]), the EC50 hypnozoite quantity is above 10 µM and the “EC50 schizont net growth area” value amounted to 0.395 µM. This compound returned a CC20 hepatic nuclei in test [3] (setting [6]) above 10 µM.

In the case of `Cc1ccnc(Nc2nc(-c3ccccn3)cs2)c1`, in test [1] (setting [7]), the maximum inhibition was found to be 84.1%. Further, in test [2] (setting [7]), the EC50 hypnozoite quantity was above 50 µM and the “EC50 schizont net growth area” value was 1.79 µM. In test [3] (setting [7]), this compound had a CC20 hepatic nuclei above 5.56 µM.

For the compound `Cc1ccc(Nc2nc(-c3ccccn3)cs2)nc1`, the maximum inhibition in test [1] (setting [8]) came out at 90.9%. This compound had an EC50 hypnozoite quantity in test [2] (setting [8]) of 19.9 µM. Besides, the CC20 hepatic nuclei in test [3] (setting [8]) was above 50 µM.

`CCN(CC)CCCNc1nc(-c2ccc(Cl)cc2)nc2ccccc12`: in test [1] (setting [9]), the maximum inhibition was found to be 99.6%. Besides, in test [2] (setting [9]), the EC50 hypnozoite quantity is above 50 µM and the “EC50 schizont net growth area” value was above 5.56 µM. For the same compound, the CC20 hepatic nuclei in test [3] (setting [9]) amounted to 40.2 µM.

For `CCOc1ccc(CCC2CCN(C(C)c3nc(N)nc(N(C)C)n3)CC2)cc1` (centres undefined), the maximum inhibition in test [1] (setting [4]) turned out to be 64.7%. In test [2] (setting [4]), the EC50 hypnozoite quantity is above 10 µM and the “EC50 schizont net growth area” value is above 3.33 µM. In test [3] (setting [4]), this compound had a CC20 hepatic nuclei above 10 µM.

For `CCOc1ccc2nc(C)cc(Nc3ccc(N(C)C)cc3)c2c1`, in test [1] (setting [9]), the maximum inhibition is 84.6%. Also, in test [2] (setting [9]), the EC50 hypnozoite quantity is above 50 µM and the “EC50 schizont net growth area” value was above 16.7 µM. For the same compound, in test [3] (setting [9]), the CC20 hepatic nuclei is 16.2 µM.

Take `CC[C@H](NC(=O)[C@H](C)NC)C(=O)N1C[C@@H](O)C[C@H]1Cc1c(-c2[nH]c3cc(F)ccc3c2C[C@@H]2C[C@H](O)CN2C(=O)[C@H](CC)NC(=O)[C@H](C)NC)[nH]c2cc(F)ccc12`: the maximum inhibition in test [1] (setting [8]) stood at 73%. In test [2] (setting [8]), this compound registered an EC50 hypnozoite quantity above 50 µM. The compound further gave a CC20 hepatic nuclei in test [3] (setting [8]) above 5.56 µM.

Regarding `CC[C@H]1CN2CCc3cc(OC)c(OC)cc3[C@@H]2C[C@@H]1C[C@H]1NCCc2cc(OC)c(OC)cc21`, in test [1] (setting [8]), the maximum inhibition turned out to be 107%. Further, in test [2] (setting [8]), the EC50 hypnozoite quantity is above 50 µM and the “EC50 schizont net growth area” value turned out to be 0.306 µM. This compound also registered a CC20 hepatic nuclei in test [3] (setting [8]) of 2.42 µM.

As for `CCn1ncc2c(NC3CCOCC3)c(CNC(=O)c3ccnn3C)c(C)nc21`, in test [1] (setting [6]), the maximum inhibition was found to be 103%. For the same compound, in test [2] (setting [6]), the EC50 hypnozoite quantity is above 50 µM and the “EC50 schizont net growth area” value stood at 0.0266 µM. Moreover, the CC20 hepatic nuclei in test [3] (setting [6]) is above 50 µM.

As for `CN(C(=O)c1cc2c(-c3cncnc3)cccc2[nH]1)c1ccccc1`, the maximum inhibition in test [1] (setting [5]) was found to be 84.7%. In test [2] (setting [5]), the EC50 hypnozoite quantity is above 50 µM and the “EC50 schizont net growth area” value was 3.11 µM. The CC20 hepatic nuclei in test [3] (setting [5]) is above 50 µM.

As to `CN(C)CCCNc1c2ccccc2nc2ccccc12`, the maximum inhibition in test [1] (setting [8]) stood at 108%. Besides, in test [2] (setting [8]), the EC50 hypnozoite quantity is above 50 µM and the “EC50 schizont net growth area” value was 9.24 µM. Further, the CC20 hepatic nuclei in test [3] (setting [8]) is 5.73 µM.

Consider `CN1CCN(C(c2cccs2)c2ccc3cccnc3c2O)CC1` (centres undefined), for which, in test [1] (setting [10]), the maximum inhibition is 60.5%. The same compound had an EC50 hypnozoite quantity in test [2] (setting [10]) above 10 µM. In test [3] (setting [10]), this compound returned a CC20 hepatic nuclei above 10 µM.

In the case of `CN1CCN(c2ccc(Nc3c4ccccc4nc4ccccc34)cc2)CC1`, the maximum inhibition in test [1] (setting [8]) is 111%. In addition, in test [2] (setting [8]), the EC50 hypnozoite quantity is above 50 µM and the “EC50 schizont net growth area” value was 6.04 µM. Moreover, the CC20 hepatic nuclei in test [3] (setting [8]) worked out at 5.55 µM.

Regarding `CNC(=S)N/N=C(\C)c1ccccn1`, the maximum inhibition in test [1] (setting [8]) stood at 100%. Further, in test [2] (setting [8]), the EC50 hypnozoite quantity was 1.92 µM and the “EC50 schizont net growth area” value amounted to 4.44 µM. Also, the CC20 hepatic nuclei in test [3] (setting [8]) is above 50 µM.

On to `COc1cc(-c2cc(-c3ccc(S(C)(=O)=O)cc3)cnc2N)ccc1O`, for which, in test [1] (setting [5]), the maximum inhibition is 80.2%. In test [2] (setting [5]), the EC50 hypnozoite quantity is above 50 µM and the “EC50 schizont net growth area” value was above 16.7 µM. The compound also gave a CC20 hepatic nuclei in test [3] (setting [5]) above 50 µM.

Turning to `COc1ccc(-c2cncc3ccc(C(=O)NCCCn4ccnc4)nc23)cc1`, the maximum inhibition in test [1] (setting [5]) is 70.8%. In addition, in test [2] (setting [5]), the EC50 hypnozoite quantity was above 50 µM and the “EC50 schizont net growth area” value is 26 µM. This compound also displayed a CC20 hepatic nuclei in test [3] (setting [5]) of 44.8 µM.

Values taken from the supplement of paper PMC8497498.
